How the values were obtained:
[1] = test system: Tritikale Sorte Prag 109; assay: Field test of pollen sterilisation, triticale Prag 109; assay type: in vivo; settings: 2% aqueous emulsion, 12 kg/ha
Description: (§1) Jedes Sterilisationsmittel wurde mindestens 5 Jahre lang geprüft.
(§2) Die Entwicklung der Perioden der Organogenese wird zytologischüberwacht. Die Behandlung von Pflanzen mit dem Sterilisationsmittel erfolgt am Anfang der fünften Periode der Organogenese nach Kupermann.
(§3) Mit dem Ahrenschiebe verwirklicht man die Isolierung von Hauptähren und anderen Stockwerken in Pergamentbeuteln. Bei Weizen und Tritikale werden Einzelisolatoren verwendet. Bei Roggen schliesst man je Ähre 5 bis 7 verschiedene nebeneinander befindliche Pflanzen unter einen gemeinsamen Isolator ein. Bei Hirse wird jede Rispe getrennt isoliert. Der Sterilitätsprozentsatz (X) für Weizen, Roggen, Tritikale und Hirse wird nach folgender Formel [formula] ermittelt.
(§4) Die Kornzahl in nicht isolierten ähren von Kontrollpflanzen wird bedingt für 100% Ansetzen bei freier Bestäubung angenommen.
(§5) Um zuverlässige Angaben zu erhalten, verwendet man 20 bis 25 Isolatoren jeder Wiederholung für Weisen und Tritikale, 10 bis 15 Gruppenisolatoren jeder Wiederholung für Roggen und Hirse.
V.Periode der Organogenese (nach Kupermann) mit einer 2%igen wässrigen Emulsion von N-(3-Dimethylaminopropyl) maleaminsäure, N-Karbamoylmaleaminsäure behandelt. Die Emulsion enthält 0,01 Masse% Tetrahydrofuran […] und 0,1 Masse% Kalziumalkylbenzolsulfonat mit 12 bis 14 Kohlensotffatomen. Der Verbrauch an Präparat beträgt 12 kg/ha. Als Kontrolle dienen Pflanzen, behandelt mit einem Verdünner ohne Sterilisationsmittel.

[2] = test system: diploidem Roggen Sorte Talovskaya 12; assay: Field test of pollen sterilisation, diploid rye Talovskaya 12; assay type: in vivo; settings: 1% aqueous emulsion, 6 kg/ha
Description: (§10) Mit dem Ahrenschiebe verwirklicht man die Isolierung von Hauptähren und anderen Stockwerken in Pergamentbeuteln. […] Bei Roggen schliesst man je Ähre 5 bis 7 verschiedene nebeneinander befindliche Pflanzen unter einen gemeinsamen Isolator ein. […] Der Sterilitätsprozentsatz (X) für Weizen, Roggen, Tritikale und Hirse wird nach folgender Formel [formula] ermittelt.
Pflanzen von diploidem Roggen Sorte Talovskaya 12 werden in der V. Periode der Organogenese (nach Kupermann) mit einer 1%igen wässrigen Emulsion von N-(2-Di- methylaminoäthyl)-maleaminsäure, N-(3-Dimethylaminopropyl)-maleaminsäure, N-Äthylmaleaminsäure, N-(2-Hydroxyäthyl)maleaminsäure, N-Karbamoylmaleaminsäure behandelt. Die Emulsion enthält 0,01 Masse% Dodezylsulfat und 0,1 Masse% Kalziumalkylbenzolsulfonat mit 12 bis _14 Kohlenstoffatomen. Der Verbrauch an Präparat beträgt 6 kg/ha. Als Kontrolle dienen Pflanzen, behandelt mit einem Verdünner ohne Sterilisationsmittel.

[3] = test system: diploidem Roggen Sorte Voskhod 2; assay: Field test of pollen sterilisation, diploid rye Voskhod 2; assay type: in vivo; settings: 1% aqueous emulsion, 10 kg/ha
Description: Die Emulsion enthält 0,1 Masse% Kalziumalkylbenzolsulfonat und 0,01 Masse% Dimethylformamid. Der Verbrauch an Präparat beträgt 10 kg/ha. Als Kontrolle dienen Pflanzen, behandelt mit einem Lösungsmittel ohne Sterilisationsmittel.

[4] = test system: tetraploidem Roggen Sorte Ukrainskaya tetra; assay: Field test of pollen sterilisation, tetraploid rye Ukrainskaya tetra; assay type: in vivo; settings: 1% aqueous emulsion, 6 kg/ha
Description: as §1, §2, §3, §4, §5
Pflanzen von tetraploidem Roggen Sorte Ukrainskaya tetra werden in der V. Periode der Organogenese (nach Kupermann) mit einer 1%igen wässrigen Emulsion von N-(2-Dimethylaminoäthyl)maleaminsäure, N-(3-Dimethyl-aminopropu)maleaminsäure bzw. N-Karbamoylmaleaminsäure behandelt. Die Emulsion enthält 0,1 Masse% Kaliumalkylbenzolsulfonat mit 12 bis 14 Kohlenstoffatomen und 0,01 Masse% Dodezylsulfat. Der Verbrauch an Präparat beträgt 6 kg/ha. Als Kontrolle dienen Pflanzen, behandelt mit einem Verdünner ohne Sterilisationsmittel. Die Prüfergebnisse sind in der Tabelle 6 dargestellt.

[5] = test system: Sommerweizens Sorte Moskovskaya 35; assay: Field test of pollen sterilisation, spring wheat Moskovskaya 35; assay type: in vivo, Sommerweizen; settings: 1% aqueous emulsion, 10 kg/ha
Description: Pflanzen des Sommerweizens Sorte Moskovskaya 35 werden in V. Periode der Organogenese (nach Kupermann) mit einer 1%igen wässrigen Emulsion von N-(2-Dimethyl-aminoäthyl)-maleaminsäure, N-(3-Dimethylaminopropyl)-maleaminsäure, N-Äthylmaleaminsäure, N-(2-Hydroxyäthyl) maleaminsäure bzw. N-Karbamoylmaleaminsäure behandelt. Die Emulsion enthält 0,5 Masse% Kalziumalkylbenzolsulfonat mit 12 bis 14 Kohlenstoffatomen als Emulgierungsmittel und 0,01 Masse% Dimethylformamid als Adjuvans. Der Verbrauch an Präparat beträgt 10 kg/ha. Als Kontrolle dienen Pflanzen, behandelt mit einem Verdünner ohne Sterilisationsmittel.

[6] = test system: diploidem Roggen Sorte Chulpan; assay: Field test of pollen sterilisation, diploid rye Chulpan; assay type: in vivo; settings: 1% aqueous emulsion, 8 kg/ha
Description: as §10
Die Emulsion enthält 0,01 Masse% Tetranydrofuran und 0,1 Masse% Kalziumalkylbenzolsulfonat mit 12 bis 14 Kohlenstoffatomen. Der Verbrauch an Präparat beträgt 8 kg/ha. Als Kontrolle dienen Pflanzen, behandelt mit einem Verdünner ohne Sterilisationsmittel.

[7] = test system: Winterweizens Sorte Mir.onovskaya 808; assay: Field test of pollen sterilisation (gametocidal activity), winter wheat Mironovskaya 808; assay type: in vivo, Winterweizen; settings: 2% aqueous emulsion, 20 kg/ha
Description: Als Emulgierungsmittel wird 0,1 Masse% Kalziumalkylbenzolsulfonat mit 12 bis 14 Kohlenstoffatomen hinzugefügt. Als Adjuvans fährt man in die Emulsion 0,01 Masse% Dimethylsulfoxid ein. Der Verbrauch an Präparat beträgt 20 kg/ha. Als Kontrolle dienen Pflanzen, behandelt mit einem Verdünner ohne Sterilisationsmittel.

[8] = test system: Sommerweizens Sorte Botanicheskaya 4; assay: Field test of pollen sterilisation, spring wheat Botanicheskaya 4; assay type: in vivo, Sommerweizen; settings: 1% aqueous emulsion, 6 kg/ha
Description: Pflanzen des Sommerweizens Sorte Botanicheskaya 4 werden in der V. Periode der Organogenese (nach Kupermann) mit einer 1%igen Wässrigen Emulsion von N-(2-Dimethyl-aminoäthyl)-maleaminsäure, N-(3-Dimethylaminopropyl)-maleaminsäure, N-Äthylmaleaminsäure, N-(2-Hydroxyäthyl)-maleaminsäure bzw. N-Karbamoylmaleaminsäure behandelt. Die Emulsion enthält 0,5 Masse% Kalziumalkylbenzolsulfonat mit 12 bis 14 Kohlenstoffatomen und 0,01 Masse% Dimethylsulfoxid als Adjuvans. Der Verbrauch an Präparat beträgt 6 kg/ha. Als Kontrolle dienen Pflanzen, behandelt mit einem Verdünner ohne Sterilisationsmittel.

[9] = test system: Hirse Sorte Mironovskoe 94; assay: Field test of pollen sterilisation, millet Mironovskoe 94; assay type: in vivo; settings: 1% aqueous emulsion, 8 kg/ha
Description: (§6) Die gametozide Aktivität der erfindungsgemässen Sterilisationsmittel war im Feldversuch in verschiedenen Bodenklimatischen Zonen mit Teilstücken von 10 m^2 Grösse in drei- bis viermaliger Wiederholung nachgewiesen. Jedes Sterilisationsmittel wurde mindestens 5 Jahre lang geprüft.
as §2, §3, §4, §5
Pflanzen der Hirse Sorte Mironovskoe 94 werden in der V. Periode der Organogenese (nach Kupermann) mit einer 1%igen wässrigen Emulsion von N-(2-Dimethylaminoäthyl)maleaminsäure, N-(3-Dimethylaminopropyl)maleaminsäure, N-Äthylmaleaminsäure, N-(2-Hydroxyäthyl)maleaminsäure, N-Karbamoylmaleaminsäure behandelt. Die Emulsion enthält 0,01 Masse% Dimethylaulfoxid und 0,1 Masse% Kalziumalkylbenzolsulfonat mit 12 bis 14 Kohlenstoffatomen. Der Verbrauch an Präparat beträgt 8 kg/ha. Als Kontrolle dienen Pflanzen, behandelt mit einem Verdünner ohne Sterilisationsmittel. Die Prüfergebnisse sind in der Tabelle 12 dargestellt. […] Periode der Organogenese erhalten.

[10] = test system: Winterweizens Sorte Bezostaya 1; assay: Field test of pollen sterilisation, winter wheat Bezostaya 1; assay type: in vivo, Winterweizen; settings: 2% aqueous emulsion, 16 kg/ha
Description: Pflanzen des Winterweizens Sorte Bezostaya 1 werden in der V. Periode der Organogenese durch Zerstäubung einer 2%igen wässrigen Emulsion von N-(2-Dimethylaminoäthyl)-maleaminsäure, N-(3-Dimethylaminopropyl)-maleaminsäure, N-Äthylmaleaminsäure, N-(2-Hydroxyäthyl)-maleaminsäure, N-Karbamoylmaleaminsäure mit Hilfe deiner Rückspritze behandelt. Die Emulsion enthält 0,1 Masse% Kalziumalkylbenzolsulfonat mit 12 bis 14 Kohlenstoffatomen. Als Adjuvans führt man in die Emulsion 0,01 Masse% Tetrahydrofuran ein.
Der Verbrauch an Präparat beträgt 16 kg/ha. Als Kontrolle dienen Pflanzen, behandelt mit einem Verdünner ohne Sterilisationsmitteln.

[11] = test system: tetraploidem Roggen Sorte Belta; assay: Field test of pollen sterilisation, tetraploid rye Belta; assay type: in vivo; settings: 1% aqueous emulsion, 10 kg/ha
Description: as §6, §2, §3, §4, §5
Pflanzen von tetraploidem Roggen Sorte Belta werden in der V. Periode der Organogenese (nach Kupermann) mit einer 1%igen wässrigen Emulsion von N-(2-Dimethylamino- .äthyl)maleaminsäure, N-(3-Dimethylaminopropyl)maleaminsäure, N-Äthylmaleaminsäure, N-(2-Hydroxyäthyl)maleaminsäure bzw. Karbamoylmaleaminsäure behandelt. Die Emulsion enthält 0,5 Masse% Kalziumalkylbenzolsulfonat mit 12 bis 14 Kohlenstoffatomen und 0,01 Masso% Tetrahydrofuran. Der Verbrauch an Präparat beträgt 10 kg/ha. Die Prüfergebnisse sind in der Tabelle 5 dargestellt. […] Periode der Organogenese erhalten.

[12] = Toxicity test in animals (LD50); settings: in vivo; animal test, per kg animal weight; species and route not given
Description: Alle erfindungsgemässen N-substituierten Maleaminsäuren, welche als Sterilisationsmittel zur Verwendung kommen, waren auf die Toxizität im Tierversuch geprüft. Die Prüfergebnisse haben ergeben, dass die angegebenen Verbindungen von schwacher oder mittlerer Toxizität sind.

[13] = test system: Sonneblume Sorte Peredovik; assay: Field test of pollen sterilisation, sunflower variety Peredovik; assay type: in vivo, Sonnenblume; settings: period V, 0.5% emulsion; for Prozentsatz der Sterilität: 3 kg/ha (N-Karbamoylmaleaminsäure) or 0.1% emulsion, 1 kg/ha (N-(3-Dimethylaminopropyl)-maleaminsäure); for Ansetzen von Ächänen bei freier Bestäubung in %: 3 kg/ha or 0.1% emulsion, 1 kg/ha, free pollination
Description: as §6, §2
(§7) Zur Kontrolle der chemischen Sterilisation des Sonnenblumenpollens werden für jede Verbindung 45 behandelte Pflanzen jeder Wiederholung benutzt, wobei 15 Pflanzen von denen zwecks Selbstbestäurun^g des Blütenkörbchens isoliert werden, 15 andere Pflanzen mit einem Pollengemisch, gesammelt von 20 bis 25 behandelten isolierten Körbchen, bestäubt werden und 15 Pflanzen für freie Bestäubeung gelassen werden, damit das Ansetzen von Ächänen mit dem Pollen der Vaterform kontrolliert werden kann.
(§8) Man beurteilt die Pollensterilität von Pflanzen der Sonnenblume nach der Pollenfertilität und -keimfähigkeit, nach den morphologischen Besonderheiten von Spermien und nach der Fähigkeit von Achänen zum Ansetzen bei der Bestäubung der behandelten isolierten Pflanzen mit dem Pollen der unbehandelten väterlichen Form. Die Lebensfähigkeit der Eizelle wird nach der Samenbildung von behandelten Pflanzen bei freier Bestäubung der väterlichen Form ermittelt.
(§9) Pflanzen der Sonneblume Sorte Peredovik und Linie BK-119 werden in der V. Periode der Organogenese (nach Kupermann) mit einer 0,5%igen wässrigen Emulsion der N-Karbamoylmaleaminsäure behandelt. Die Emulsion enthält 0,01 Masse% Dimethylsulfoxid und 0,1 Masse% Kalziumalkylbenzolsulfonat mit 12 bis 14 Kohlenstoffatomen. Der Verbrauch an Präparat beträgt 3 kg/ha. Die gleichen Pflanzen werden mit einer 0,1masseprozentigen wässrigen Emulsion der N-(3-Dimethylaminopropyl)-maleaminsäure behandelt. Im letzten Falle enthält die Emulsion 0,01 Masse% Dodezylsulfat und 0,1 Masse% Kalziumalkylbenolsulfonat mit 12 bis 14 Kohlensotffatomen. Der Verbrauch an Präparat beträgt 1 kg/ha. Als Kontrolle dienen Pflanzen, behandelt mit einem Verdünner.ohne Sterilisationsmittel. Die Prufergenisse sind in der Tabelle 14 dargestellt. […] Periode der Organogenese erhalten.

[14] = test system: Linie BK-119; assay: Field test of pollen sterilisation, sunflower line BK-119; assay type: in vivo, Sonnenblume; settings: period V, 0.5% emulsion; for Prozentsatz der Sterilität: 3 kg/ha (N-Karbamoylmaleaminsäure) or 0.1% emulsion, 1 kg/ha (N-(3-Dimethylaminopropyl)-maleaminsäure); for Ansetzen von Ächänen bei freier Bestäubung in %: 3 kg/ha or 0.1% emulsion, 1 kg/ha, free pollination
Description: as §6, §2, §7, §8, §9

[15] = period V of organogenesis, free pollination
[16] = period V of organogenesis, isolated ears
[17] = period V, non-isolated control ears = 100%

## NC(=O)NC(=O)/C=C\C(=O)O [Beispiel 5, N-Karbamoylmaleaminsäure]
[1]; period V of organogenesis
  Prozentsatz der Sterilität: 100,0%
[1]; [15]
  Anzahl von Körnern der Ähre bei freier Bestäubung: 39,6
[1]; [16]
  Anzahl von Körnern der Ähre im Isolator: 0,0
[1]; [17]
  Prozentsatz des Ansetzens von Körnern bei freier Bestäubung: 86,5%
[2]; period V of organogenesis
  Prozentsatz der Sterilität: 100,0%
[2]; [15]
  Anzahl von Körnern der Ähre bei freier Bestäubung: 48,9
[2]; [16]
  Anzahl von Körnern der Ähre im Isolator: 0,0
[2]; [17]
  Prozentsatz des Ansetzens von Körnern bei freier Bestäubung: 87,0%
[3]; period V of organogenesis
  Prozentsatz der Sterilität: 98,2%
[3]; [15]
  Anzahl von Körnern der Ähre bei freier Bestäubung: 51,7
[3]; [16]
  Anzahl von Körnern der Ähre im Isolator: 0,9
[3]; [17]
  Prozentsatz des Ansetzens von Körnern bei freier Bestäubung: 93,7%
[4]; period V of organogenesis
  Prozentsatz der Sterilität: 99,4%
[4]; [15]
  Anzahl von Körnern der Ähre bei freier Bestäubung: 44,0
[4]; [16]
  Anzahl von Körnern der Ähre im Isolator: 0,2
[4]; [17]
  Prozentsatz des Ansetzens von Körnern bei freier Bestäubung: 98,2%
[5]; period V of organogenesis
  Prozentsatz der Sterilität: 100,0%
[5]; [15]
  Anzahl von Körnern der Ähre bei freier Bestäubung: 27,2
[5]; [16]
  Anzahl von Körnern der Ähre im Isolator: 0,0
[5]; [17]
  Prozentsatz des Ansetzens von Körnern bei freier Bestäubung: 98,9%
[6]; period V of organogenesis
  Prozentsatz der Sterilität: 100,0%
[6]; [15]
  Anzahl von Körnern der Ähre bei freier Bestäubung: 48,7
[6]; [16]
  Anzahl von Körnern der Ähre im Isolator: 0,0
[6]; [17]
  Prozentsatz des Ansetzens von Körnern bei freier Bestäubung: 85,7%
[7]; period V of organogenesis
  Prozentsatz der Sterilität: 100,0%
[7]; [15]
  Anzahl von Körnern der Ähre bei freier Bestäubung: 40,0
[7]; [16]
  Anzahl von Körnern der Ähre im Isolator: 0,0
[7]; [17]
  Prozentsatz des Ansetzens von Körnern bei freier Bestäubung: 93,9%
[8]; period V of organogenesis
  Prozentsatz der Sterilität: 100,0%
[8]; [15]
  Anzahl von Körnern der Ähre bei freier Bestäubung: 27,1
[8]; [16]
  Anzahl von Körnern der Ähre im Isolator: 0,0
[8]; [17]
  Prozentsatz des Ansetzens von Körnern bei freier Bestäubung: 90,0%
[9]; period V of organogenesis
  Prozentsatz der Sterilität: 100,0%
[9]; [15]
  Anzahl von Körnern der Rispe bei freier Bestäubung: 198,2
[9]; period V of organogenesis, isolated panicles
  Anzahl von Körnern der Rispe im Isolator: 0,0
[9]; period V, non-isolated control = 100%
  Prozentsatz des Ansetzens von Körnern bei freier Bestäubung: 87,2%
[10]; period V of organogenesis
  Prozentsatz der Sterilität: 97,8%
[10]; [15]
  Anzahl von Körnern der Ähre bei freier Bestäubung: 41,8
[10]; [16]
  Anzahl von Körnern der Ähre im Isolator: 0,7
[10]; [17]
  Prozentsatz des Ansetzens von Körnern bei breier Bestäubung: 97,4%
[11]; period V of organogenesis
  Prozentsatz der Sterilität: 100,0%
[11]; [15]
  Anzahl von Körnern der Ähre bei freier Bestäubung: 47,8
[11]; [16]
  Anzahl von Körnern der Ähre im Isolator: 0,0
[11]; [17]
  Prozentsatz des Ansetzens von Körnern bei freier Bestäubung: 87,2%
[12]
  LD50: 2000 mg/kg

## NC(=O)NC(=O)/C=C\C(=O)O [Beispiel 59, N-Karbamoylmaleaminsäure]
[13]
  Prozentsatz der Sterilität: 100,0%
  Ansetzen von Ächänen bei freier Bestäubung in %: 81,7%

## CN(C)CCCNC(=O)/C=C\C(=O)O [Beispiel 60, N-(3-Dimethylaminopropyl)-maleaminsäure]
[13]
  Prozentsatz der Sterilität: 100,0%
  Ansetzen von Ächänen bei freier Bestäubung in %: 84,9%

## NC(=O)NC(=O)/C=C\C(=O)O [Beispiel 61, N-Karbamoylmaleaminsäure]
[14]
  Prozentsatz der Sterilität: 100,0%
  Ansetzen von Ächänen bei freier Bestäubung in %: 82,5%

## CN(C)CCCNC(=O)/C=C\C(=O)O [Beispiel 64, N-(3-Dimethylaminopropyl)-maleaminsäure]
[14]
  Prozentsatz der Sterilität: 100,0%
  Ansetzen von Ächänen bei freier Bestäubung in %: 80,4%

From patent EP0374249A1, “METHOD OF STERILIZING PLANT POLLEN” (VSESOJUZNY NAUCHNO-ISSLEDOVATELSKY INST. SELSKOKHOZYAISTV. …, priority 1988, dated 1989)
